{"source": "patent US11427549B2", "about": "“Pyrimidinyloxy benzo-fused compounds as herbicides” (FMC Corporation, priority 2017, dated 2022)", "key": {"[1]": {"system": "wheat (Triticum aestivum)", "experiment": "Test A postemergence, wheat", "format": "in vivo", "details": "Triticum aestivum, post-emergence, 240 h, 0 to 100 scale (0 no effect, 100 complete control), read-out: Plant response rating, Wheat"}, "kochia (Kochia scoparia) [2]": {"system": "kochia (Kochia scoparia)", "experiment": "Test A postemergence, kochia", "format": "in vivo", "details": "Bassia scoparia, post-emergence, 240 h, 0 to 100 scale (0 no effect, 100 complete control), read-out: Plant response rating, Kochia"}, "[3]": {"system": "ragweed (common ragweed, Ambrosia elatior)", "experiment": "Test A postemergence, ragweed", "format": "in vivo", "details": "Ambrosia artemisiifolia, post-emergence, 240 h, 0 to 100 scale (0 no effect, 100 complete control), read-out: Plant response rating, Ragweed"}, "[4]": {"system": "barnyardgrass (Echinochloa crus-galli)", "experiment": "Test A preemergence, barnyardgrass", "format": "in vivo", "details": "Echinochloa crus-galli, pre-emergence, 240 h, 0 to 100 scale (0 no effect, 100 complete control), read-out: Plant response rating, Barnyardgrass"}, "[5]": {"system": "barnyardgrass (Echinochloa crus-galli)", "experiment": "Test A postemergence, barnyardgrass", "format": "in vivo", "details": "Echinochloa crus-galli, post-emergence, 240 h, 0 to 100 scale (0 no effect, 100 complete control), read-out: Plant response rating, Barnyardgrass"}, "[6]": {"system": "barnyardgrass (Echinochloa crus-galli)", "experiment": "Test B flooded paddy test, barnyardgrass", "details": "Echinochloa crus-galli, read-out: Plant response rating, Barnyardgrass (0 to 100 scale, 0 is no effect, 100 is complete control)"}, "kochia (Kochia scoparia) [7]": {"system": "kochia (Kochia scoparia)", "experiment": "Test A preemergence, kochia", "format": "in vivo", "details": "Bassia scoparia, pre-emergence, 240 h, 0 to 100 scale (0 no effect, 100 complete control), read-out: Plant response rating, Kochia"}, "[8]": {"system": "pigweed (Amaranthus retroflexus)", "experiment": "Test A preemergence, pigweed", "format": "in vivo", "details": "Amaranthus retroflexus, pre-emergence, 240 h, 0 to 100 scale (0 no effect, 100 complete control), read-out: Plant response rating, Pigweed"}, "[9]": {"system": "galium (catchweed bedstraw, Galium aparine)", "experiment": "Test A postemergence, galium", "format": "in vivo", "details": "Galium, post-emergence, 240 h, 0 to 100 scale (0 no effect, 100 complete control), read-out: Plant response rating, Galium"}, "[10]": {"system": "foxtail, green (green foxtail, Setaria viridis)", "experiment": "Test A preemergence, foxtail, green", "format": "in vivo", "details": "Setaria, pre-emergence, 240 h, 0 to 100 scale (0 no effect, 100 complete control), read-out: Plant response rating, Foxtail, Green"}, "[11]": {"system": "ducksalad (Heteranthera limosa)", "experiment": "Test B flooded paddy test, ducksalad", "details": "Heteranthera limosa, read-out: Plant response rating, Ducksalad (0 to 100 scale, 0 is no effect, 100 is complete control)"}, "[12]": {"system": "ragweed (common ragweed, Ambrosia elatior)", "experiment": "Test A preemergence, ragweed", "format": "in vivo", "details": "Ambrosia artemisiifolia, pre-emergence, 240 h, 0 to 100 scale (0 no effect, 100 complete control), read-out: Plant response rating, Ragweed"}, "[13]": {"system": "blackgrass (Alopecurus myosuroides)", "experiment": "Test A postemergence, blackgrass", "format": "in vivo", "details": "Alopecurus myosuroides, post-emergence, 240 h, 0 to 100 scale (0 no effect, 100 complete control), read-out: Plant response rating, Blackgrass"}, "rice (Oryza sativa)": {"system": "rice (Oryza sativa)", "experiment": "Test B flooded paddy test, rice", "details": "Oryza sativa, read-out: Plant response rating, Rice (0 to 100 scale, 0 is no effect, 100 is complete control)"}, "[14]": {"system": "pigweed (Amaranthus retroflexus)", "experiment": "Test A postemergence, pigweed", "format": "in vivo", "details": "Amaranthus retroflexus, post-emergence, 240 h, 0 to 100 scale (0 no effect, 100 complete control), read-out: Plant response rating, Pigweed"}, "corn (Zea mays)": {"system": "corn (Zea mays)", "experiment": "Test A postemergence, corn", "format": "in vivo", "details": "Zea mays, post-emergence, 240 h, 0 to 100 scale (0 no effect, 100 complete control)"}, "[15]": {"system": "ryegrass, Italian (Italian ryegrass, Lolium multiflorum)", "experiment": "Test A postemergence, ryegrass, Italian", "format": "in vivo", "details": "Lolium multiflorum, post-emergence, 240 h, 0 to 100 scale (0 no effect, 100 complete control), read-out: Plant response rating, Ryegrass, Italian"}, "[16]": {"system": "ryegrass, Italian (Italian ryegrass, Lolium multiflorum)", "experiment": "Test A preemergence, ryegrass, Italian", "format": "in vivo", "details": "Lolium multiflorum, pre-emergence, 240 h, 0 to 100 scale (0 no effect, 100 complete control), read-out: Plant response rating, Ryegrass, Italian"}}}
{"smiles": "CCCC1OC(=O)Cc2cccc(Oc3ncc(Cl)cn3)c21", "note": "(stereo not drawn) [Compound 35, 8-[(5-Chloro-2-pyrimidinyl)oxy]-1,4-dihydro-1-propyl-3H-2-benzopyran-3-one]", "values": [{"measurement": "plant injury at 31 g/ha", "setting": "[1]; 31 g ai/ha", "result": 0, "unit": "%"}, {"measurement": "plant injury at 125 g/ha", "setting": "[1]; 125 g ai/ha", "result": 0, "unit": "%"}, {"measurement": "pest or weed control at 31 g/ha", "setting": "kochia (Kochia scoparia) [2]; 31 g ai/ha", "result": 20, "unit": "%"}, {"measurement": "pest or weed control at 125 g/ha", "setting": "kochia (Kochia scoparia) [2]; 125 g ai/ha", "result": 50, "unit": "%"}, {"measurement": "pest or weed control at 31 g/ha", "setting": "[3]; 31 g ai/ha", "result": 0, "unit": "%"}, {"measurement": "pest or weed control at 125 g/ha", "setting": "[3]; 125 g ai/ha", "result": 10, "unit": "%"}, {"measurement": "pest or weed control at 31 g/ha", "setting": "[4]; 31 g ai/ha", "result": 0, "unit": "%"}, {"measurement": "pest or weed control at 125 g/ha", "setting": "[4]; 125 g ai/ha", "result": 10, "unit": "%"}, {"measurement": "pest or weed control at 31 g/ha", "setting": "[5]; 31 g ai/ha", "result": 0, "unit": "%"}, {"measurement": "pest or weed control at 125 g/ha", "setting": "[5]; 125 g ai/ha", "result": 0, "unit": "%"}, {"measurement": "pest or weed control at 250 g/ha", "setting": "[6]", "result": 0, "unit": "%"}, {"measurement": "pest or weed control at 31 g/ha", "setting": "kochia (Kochia scoparia) [7]; 31 g ai/ha", "result": 0, "unit": "%"}, {"measurement": "pest or weed control at 125 g/ha", "setting": "kochia (Kochia scoparia) [7]; 125 g ai/ha", "result": 0, "unit": "%"}, {"measurement": "pest or weed control at 31 g/ha", "setting": "[8]; 31 g ai/ha", "result": 0, "unit": "%"}, {"measurement": "pest or weed control at 125 g/ha", "setting": "[8]; 125 g ai/ha", "result": 10, "unit": "%"}, {"measurement": "pest or weed control at 31 g/ha", "setting": "[9]; 31 g ai/ha", "result": 10, "unit": "%"}, {"measurement": "pest or weed control at 125 g/ha", "setting": "[9]; 125 g ai/ha", "result": 30, "unit": "%"}, {"measurement": "pest or weed control at 31 g/ha", "setting": "[10]; 31 g ai/ha", "result": 0, "unit": "%"}, {"measurement": "pest or weed control at 125 g/ha", "setting": "[10]; 125 g ai/ha", "result": 10, "unit": "%"}, {"measurement": "pest or weed control at 250 g/ha", "setting": "[11]", "result": 0, "unit": "%"}, {"measurement": "pest or weed control at 31 g/ha", "setting": "[12]; 31 g ai/ha", "result": 0, "unit": "%"}, {"measurement": "pest or weed control at 125 g/ha", "setting": "[12]; 125 g ai/ha", "result": 0, "unit": "%"}, {"measurement": "pest or weed control at 31 g/ha", "setting": "[13]; 31 g ai/ha", "result": 10, "unit": "%"}, {"measurement": "pest or weed control at 125 g/ha", "setting": "[13]; 125 g ai/ha", "result": 10, "unit": "%"}, {"measurement": "plant injury at 250 g/ha", "setting": "rice (Oryza sativa)", "result": 0, "unit": "%"}, {"measurement": "pest or weed control at 31 g/ha", "setting": "[14]; 31 g ai/ha", "result": 30, "unit": "%"}, {"measurement": "pest or weed control at 125 g/ha", "setting": "[14]; 125 g ai/ha", "result": 50, "unit": "%"}, {"measurement": "Corn plant response rating (crop injury, 0 = no effect, 100 = complete kill) at 31 g/ha", "setting": "corn (Zea mays); 31 g ai/ha", "result": 0, "unit": "%"}, {"measurement": "Corn plant response rating (crop injury, 0 = no effect, 100 = complete kill) at 125 g/ha", "setting": "corn (Zea mays); 125 g ai/ha", "result": 0, "unit": "%"}, {"measurement": "pest or weed control at 31 g/ha", "setting": "[15]; 31 g ai/ha", "result": 0, "unit": "%"}, {"measurement": "pest or weed control at 125 g/ha", "setting": "[15]; 125 g ai/ha", "result": 0, "unit": "%"}, {"measurement": "pest or weed control at 31 g/ha", "setting": "[16]; 31 g ai/ha", "result": 0, "unit": "%"}, {"measurement": "pest or weed control at 125 g/ha", "setting": "[16]; 125 g ai/ha", "result": 0, "unit": "%"}]}
